Patent publication EP2769738B1, “Conjugated TLR7 and/or TLR8 and TLR2 polycationic agonists” (Invivogen, priority 2013, dated 2014)
Values joined by “and” are separate entries in the source; they are usually repeats but may differ in a detail not shown here. Identical values can stand only once.

Assay: Determination of nanoparticle (lipoplex) size by dynamic light scattering
Format: physicochemical
Conditions: ratio 3:24 (w:w); for Conformity (C)/ Non-conformity (NC) / Mean Diameter (nm): complexes with pDNA; for Mean Diameter (nm): dynamic light scattering at 25°C; for Mean Diameter (nm) / PDI: triplicate measurements; for PDI: polydispersity index of complexes with pDNA, 25°C
Method: • 1. Preparative HPLC Method: Unless otherwise indicated, the compounds described herein were purified by RP-MPLC ARMEN® Spot Flash Liquid Chromatography (ARMEN Instrument, Saint Ave, France) on a preparative column (SVF D26) packed with 25-40 µm C18 resin (Merck chimie SAS), by applying a linear gradient of 0-10% MeCN in NH4OAc (10 mM) solution (pH = 9) over 60 min at a 15 mL/min flow rate. The purification was monitored at 254 nm. Suitable fractions were pooled and lyophilised. • 2. Proton NMR Spectra: Unless otherwise indicated, all ^1H NMR spectra were run on a Bruker series 300 MHz instrument. Where so characterized, all observed protons are reported as parts-per-million (ppm) downfield from tetramethylsilane (TMS) or other internal reference in the appropriate solvent indicated. NMR spectra were recorded on a Brucker 300 spectrometer. For ^1H (300 MHz) spectra δ values were referenced to CDCI3-d1 (7.26 ppm), DMSO- d6 (2.50 ppm), D2O-d2 (4.79 ppm) or MeOD-d4 (3.31 ppm). The peak patterns are indicated as follows: s: singlet, sl: large singlet, d: doublet, t: triplet, q: quartet, m: multiplet. • 3. Mass Spectra (MS): Analyses were run on an Agilent Model 6130 quadrupole MS. Unless otherwise indicated, all mass spectral data for starting materials, intermediates and/or exemplary compounds are reported as mass/charge (m/z), having an (M+H)^+ molecular ion. The molecular ion reported was obtained by electrospray detection method (commonly referred to as an ESI MS). Compounds having an isotopic atom, such as bromine and the like, are generally reported according to the detected isotopic pattern, as appreciated by those skilled in the art. • 4. Particle size: Particle size was determined using a Malvern Nanosizer (Malvern, Worcestershire, UK) and Malvern ZETASIZER.RTM. (Malvern, Worcestershire, UK). • 5. Naming Convention The compounds disclosed and described herein have been named using the naming convention provided with Chem-Draw Ultra 11.0 software, available in Chem. Office. In some instances, compounds were named with the term "spermine" inserted where appropriate. For example, where the spermine is substituted with Boc, "N1,N5,N10-TriBoc-spermine" is added to the Chem-Draw nomenclature in the appropriate place. Chem-Draw utilizes the ISIS Draw software compound naming convention, as appreciated by those skilled in the art.
For pDNA:TLR7-TLR2 polyamine molecules complexes, a ratio pDNA:TLR7-TLR2 polyamine molecules of 3:24 (w:w) was prepared in serum-free culture medium or in 5% glucose. The TLR7-TLR2 conjugated compound of interest was prediluted in serum-free culture medium or in 5% glucose and incubated for 5 minutes at room temperature, prior to the addition of an endotoxin-free, salt-free preparation of pDNA. In these experiments, the pBsr2pCpGLacZh plasmid was used in the pDNA:TLR7-TLR2 polyamine molecule complexes. The pDNA:TLR7-TLR2 polyamine molecule mixtures were incubated at room temperature for 30 minutes to allow the formation of the complex. The control used in these experiments was the cationic lipid transfection agent LyoVec™ (InvivoGen) prepared in a similar manner.
In order to confirm that TLR7-TLR2 polyamine molecules complex DNA, lipoplex size was determined. The physical characterization of complex was achieved by dynamic light scattering using the analytical equipment for laser diffraction Zetasizer Nano-ZS (Malvern). pDNA:TLR7-TLR2 polyamine molecule complexes were prepared as described above. Subsequently, 50µl of pDNA: TLR7-TLR2 polyamine molecule complexes were placed into a disposable sizing cuvette and measurements were made under conditions defined according to manufacturer's instructions. The measurements were made at 25°C in triplicate and a size distribution report was obtained. […]

Q: Which results are given for `CCCCCCCCCCCCCCCC(=O)OCC(CSC[C@H](N)C(=O)N[C@@H](CCCCNC(=O)CNC(=O)c1ccc(Cn2c(O)nc3c(N)nc(NCCCC)nc32)cc1)C(=O)NCCCNCCCCNCCCN)OC(=O)CCCCCCCCCCCCCCC` (stereo partly drawn) [CL475, (6R,9S)-6,23-diamino-9-(4-(2-(4-((6-amino-2-(butylamino)-8-hydroxy-9H-purin-9-yl)methyl)benzamido)acetamido)butyl)-7,10-dioxo-4-thia-8,11,15,20-tetraazatrico sane-1,2-diyl dipalmitate]?
A: Conformity (C)/ Non-conformity (NC): C (ranged between 140 and 200 nm in diameter were considered to show conformity); Mean Diameter (nm): 145,9 nm and 155,8 nm and 153,5 nm; PDI: 0,193 and 0,176 and 0,158

Q: With `CCCCCCCCCCCCCCCC(=O)OCC(CSC[C@H](N)C(=O)NCCCC[C@H](NC(=O)c1ccc(Cn2c(O)nc3c(N)nc(NCCCC)nc32)cc1)C(=O)NCCCNCCCCNCCCN)OC(=O)CCCCCCCCCCCCCCC` (stereo partly drawn) [CL486, (6R,13S)-6,27-diamino-13-(4-((6-amino-2-(butylamino)-8-hydroxy-9H-purin-9-yl)methyl)benzamido)-7,14-dioxo-4-thia-8,15,19,24-tetraazaheptacosane-1,2-diyl dipalmitate] as the compound, how does the “Conformity (C)/ Non-conformity (NC)” value read?
A: Its value is “C (ranged between 140 and 200 nm in diameter were considered to show conformity)”.

Q: And the “Mean Diameter (nm)” value?
A: Its value is 209,2 nm and 179,7 nm and 202,0 nm.

Q: What about the PDI of the same compound?
A: The PDI was 0,236 and 0,232 and 0,234.

Q: What does the source list for `CCCCCCCCCCCCCCCC(=O)OCC(CSC[C@H](N)C(=O)NCCCC[C@H](NC(=O)CNC(=O)c1ccc(Cn2c(O)nc3c(N)nc(NCCCC)nc32)cc1)C(=O)NCCCNCCCCNCCCN)OC(=O)CCCCCCCCCCCCCCC` (stereo partly drawn) [CL487, (6R,13S)-6,27-diamino-13-(2-(4-((6-amino-2-(butylamino)-8-hydroxy-9H-purin-9-yl)methyl)benzamido)acetamido)-7,14-dioxo-4-thia-8,15,19,24-tetraazaheptacosane-1,2-diyl dipalmitate]?
A: Conformity (C)/ Non-conformity (NC): C (ranged between 140 and 200 nm in diameter were considered to show conformity); Mean Diameter (nm): 148,1 nm and 165,6 nm and 160,0 nm; PDI: 0,23 and 0,255 and 0,241

Q: With `CCCCCCCCCCCCCCCC(=O)OCC(CSC[C@H](N)C(=O)N[C@@H](COC(=O)c1ccc(Cn2c(O)nc3c(N)nc(NCCCC)nc32)cc1)C(=O)NCCCNCCCCNCCCN)OC(=O)CCCCCCCCCCCCCCC` (stereo partly drawn) [CL514, (6R,9S)-6,23-diamino-9-((4-((6-amino-2-(butylamino)-8-hydroxy-9H-purin-9-yl)methyl)benzoyloxy)methyl)-7,10-dioxo-4-thia-8,11,15,20-tetraazatricosane-1,2-diyl dipalmitate] as the compound, how does the “Conformity (C)/ Non-conformity (NC)” value read?
A: The value was “C (ranged between 140 and 200 nm in diameter were considered to show conformity)”.

Q: What about the “Mean Diameter (nm)” value of the same compound?
A: Its value is 249,1 nm and 309,6 nm and 258,3 nm.

Q: And the PDI?
A: The PDI was 0,303 and 0,354 and 0,372.

Q: For `CCCCCCCCCCCCCCCC(=O)OCC(CSC[C@H](N)C(=O)N[C@@H](CCC(=O)NCCCNCCCCNCCCN)C(=O)Nc1ccc(Cn2c(O)nc3c(N)nc(NCCCC)nc32)cc1)OC(=O)CCCCCCCCCCCCCCC` (stereo partly drawn) [CL527, (6R,9S)-6,25-diamino-9-(4-((6-amino-2-(butylamino)-8-hydroxy-9H-purin-9-yl)methyl)phenylcarbamoyl)-7,12-dioxo-4-thia-8,13,17,22-tetraazapentacosane-1,2-diyl dipalmitate], which “Conformity (C)/ Non-conformity (NC)” value is on record?
A: The value was “C (ranged between 140 and 200 nm in diameter were considered to show conformity)”.

Q: What about the “Mean Diameter (nm)” value of the same compound?
A: Its value is 175,1 nm and 156,9 nm and 168,3 nm.

Q: And the PDI?
A: Its PDI is 0,253 and 0,239 and 0,258.

Q: For `CCCCCCCCCCCCCCCC(=O)OCC(CSC[C@H](N)C(=O)NCCCNCCCCNCCCNC(=O)CNC(=O)c1ccc(Cn2c(O)nc3c(N)nc(NCCCC)nc32)cc1)OC(=O)CCCCCCCCCCCCCCC` (stereo partly drawn) [CL553, (20R)-20-amino-1-(4-((6-amino-2-(butylamino)-8-hydroxy-9H-purin-9-yl)methyl)phenyl)-1,4,19-trioxo-22-thia-2,5,9,14,18-pentaazapentacosane-24,25-diyl dipalmitate], which “Conformity (C)/ Non-conformity (NC)” value is on record?
A: Its value is “C (ranged between 140 and 200 nm in diameter were considered to show conformity)”.

Q: What about the “Mean Diameter (nm)” value of the same compound?
A: Its value is 170.0 nm and 190.0 nm and 180,2 nm.

Q: What about the PDI of the same compound?
A: Its PDI is 0,226 and 0,230 and 0,237.
